Values of other authors as cited in patent publication US11192954B2, “Compounds and methods for the treatment of TROP2 positive diseases” (BIO-THERA SOLUTIONS, LTD., priority 2017, dated 2021).

Experiments:
[1] = system: multiple cancer cell lines; conditions: cited from earlier work
[2] = system: Lewis lung carcinoma and B-16 melanocarcinoma solid murine tumor models; conditions: mouse, in vivo; cited from earlier work

SMILES	Activity against multiple cancer cell lines [1]	Activity against murine tumors [2]
COc1cc2cc(c1Cl)N(C)C(=O)C[C@H](OC(=O)C(C)C)[C@]1(C)O[C@@H]1[C@H](C)[C@@H]1C[C@@](O)(NC(=O)O1)[C@H](OC)/C=C/C=C(\C)C2 [Ansamitocin P3]	effective	–
COc1cc2cc(c1Cl)N(C)C(=O)C[C@H](OC(=O)[C@H](C)N(C)C(C)=O)[C@]1(C)O[C@H]1[C@H](C)[C@@H]1C[C@@](O)(NC(=O)O1)[C@H](OC)/C=C/C=C(\C)C2 [Maytansine]	–	significant inhibitory activity
